Assay [1] addresses T1, L-selectin (Homo sapiens) (UniProt P14151).
T1 sequence (whole entry): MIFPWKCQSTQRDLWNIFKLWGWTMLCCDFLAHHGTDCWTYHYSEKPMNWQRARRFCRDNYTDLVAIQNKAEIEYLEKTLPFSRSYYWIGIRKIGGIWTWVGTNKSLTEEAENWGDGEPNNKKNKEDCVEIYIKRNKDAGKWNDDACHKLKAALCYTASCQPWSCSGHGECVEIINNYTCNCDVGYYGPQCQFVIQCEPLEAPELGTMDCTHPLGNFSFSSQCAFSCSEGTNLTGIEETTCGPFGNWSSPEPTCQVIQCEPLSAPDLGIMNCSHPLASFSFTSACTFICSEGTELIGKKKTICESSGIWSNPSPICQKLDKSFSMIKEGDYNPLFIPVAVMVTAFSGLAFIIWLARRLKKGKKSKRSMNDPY
The assay is described as follows: Inhibition of human L-selectin transfected in mouse 300.19 cells assessed as decrease in protein-mediated cell rolling on GlyCAM-1 or PNAd preincubated for 5 mins followed by cell perfusion through laminar flow chamber coated with GlyCAM-1 or PNAd relative to control. Type of assay: cell-based.

The next assay has as its target T2, CD209 antigen (Homo sapiens, UniProt Q9NNX6).
T2 sequence (Q9NNX6 whole entry): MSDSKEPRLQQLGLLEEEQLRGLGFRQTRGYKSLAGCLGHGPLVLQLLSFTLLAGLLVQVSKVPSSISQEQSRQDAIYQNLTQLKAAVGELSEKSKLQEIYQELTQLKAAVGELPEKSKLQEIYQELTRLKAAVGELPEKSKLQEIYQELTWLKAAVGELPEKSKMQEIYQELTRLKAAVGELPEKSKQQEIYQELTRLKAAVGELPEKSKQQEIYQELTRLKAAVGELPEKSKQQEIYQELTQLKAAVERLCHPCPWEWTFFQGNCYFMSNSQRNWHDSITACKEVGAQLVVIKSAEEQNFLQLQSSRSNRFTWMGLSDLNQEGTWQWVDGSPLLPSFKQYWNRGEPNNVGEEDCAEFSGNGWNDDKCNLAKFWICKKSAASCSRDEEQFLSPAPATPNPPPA
The assay is described as follows: Inhibition of DC-SIGN (unknown origin).

Turning to `CCCO[C@@H]1O[C@H](CO)[C@@H](O[C@@H]2O[C@H](CO)[C@H](O)[C@H](O[C@]3(C(=O)O)C[C@H](O)[C@@H](NC(C)=O)[C@H]([C@H](O)[C@H](O)CO)O3)[C@H]2O)[C@H](O[C@@H]2O[C@@H](C)[C@@H](O)[C@@H](O)[C@@H]2O)[C@@H]1O`, in assay [1], the fold change (FC) was 1.

For the compound `CCCO[C@@H]1O[C@H](COS(=O)(=O)O)[C@@H](O[C@@H]2O[C@H](CO)[C@H](O)[C@H](O[C@]3(C(=O)O)C[C@H](O)[C@@H](NC(C)=O)[C@H]([C@H](O)[C@H](O)CO)O3)[C@H]2O)[C@H](O[C@@H]2O[C@@H](C)[C@@H](O)[C@@H](O)[C@@H]2O)[C@@H]1O`, the fold change (FC) in assay [1] is 3. As for `NC(=O)[C@@H](CCC(=O)O)NC(=O)[C@H]1C[C@@H](O)[C@H](O)[C@H](O)[C@H]1SCCCCSCc1cccc(F)c1`, inhibition at CD209 antigen was half-maximal at 3.2 mM (IC50). As to `CC(=O)N[C@@H]1C(O)O[C@H](CO)[C@@H](O)[C@@H]1O` (some centres undefined), the Ki (in general, a measure of affinity in units of concentration, obtained from inhibition or displacement) on CD209 antigen amounted to 11 mM.
